From patent US8455186B2, “Method of detection of microorganisms with enhanced bacteriophage amplification” (priority 2007, dated 2013) come the findings set out here.

For test [1], the system named is S. aureus strains. The test can be described thus: Stimulation of bacteriophage amplification by fatty acid compounds, all hosts tested. The following applies: for effect on bacteriophage amplification: fatty acid compound added to growth medium.
Test [2] relates to clinical MRSA (methicillin-resistant S. aureus) isolates. The experiment in a line: Phage amplification in MRSA strains with cefoxitin and/or lauric acid (FIG. 3).
Excerpt: In FIG. 3, each symbol represents a clinical MRSA (methicillin-resistant S. aureus) isolate able to grow in the presence of β-lactam antibiotics such as cefoxitin. The first column 62 (circles) indicates amplification by MRSA strains with no cefoxitin and no lauric acid. The second column 64 (squares) indicates amplification with added cefoxitin. […] The third column 66 (diamonds) indicates amplification with added lauric acid. The fourth column 70 (x's) indicate amplification with added lauric acid and cefoxitin.
Test [3] relates to clinical isolates of S. aureus (good bacteriophage hosts). The experiment in a line: Bacteriophage amplification on permissive (good) S. aureus hosts with lauric acid (FIG. 2).
The subject of test [4] is clinical isolates of S. aureus (poorest hosts for bacteriophage amplification). The test can be described thus: Bacteriophage amplification (MP112 and MP115) on poor or restrictive S. aureus hosts with lauric acid (FIG. 1).
Excerpt: The 28 strains in this study were chosen from a collection of 202 clinical isolates as the poorest hosts for bacteriophage amplification.
The subject of test [5] is S. aureus strains. The experiment in a line: Bacteriophage mean amplification versus sodium pyruvate concentration (FIG. 5). The class given is cell-based, Staphylococcus aureus.
Test [6] concerns panel of 32 S. aureus strains. The test can be described thus: Bacteriophage sensitivity versus sodium pyruvate concentration (FIG. 4).

The structures appear in SMILES notation.

Take `CCCCCCCCCC(=O)O` [capric acid]: the “effect on bacteriophage amplification” value in test [1] is “positively stimulate bacteriophage amplification”.

In the case of `CCCCCC(=O)O` [caproic acid], the “effect on bacteriophage amplification” value in test [1] is listed as “positively stimulate bacteriophage amplification”.

Take `CCCCCCCC(=O)O` [caprylic acid]: in test [1], the “effect on bacteriophage amplification” value was “positively stimulate bacteriophage amplification”.

Regarding `CO[C@@]1(NC(=O)Cc2cccs2)C(=O)N2C(C(=O)O)=C(COC(N)=O)CS[C@@H]21` [cefoxitin, reference compound], the “effect on phage amplification in MRSA strains” value in test [2] (added cefoxitin, no lauric acid) is “suppression of phage amplification”.

For the compound `CCCCCCCCCCCC(=O)OCC(O)CO` (stereo not shown) [glycerol monolaurate], the “effect on bacteriophage amplification” value in test [1] is on record as “positively stimulate bacteriophage amplification”.

As for `CCCCCCCCCCCC(=O)O` [lauric acid], the “effect on bacteriophage amplification on permissive S. aureus hosts” value in test [3] (FIG. 2 legend) is on record as “increases bacteriophage amplification”. In addition, the average amplification result in test [3] (with the addition of lauric acid (5-30 μg/ml), good hosts, 69-fold without) is given as “over 100 fold”. Also, in test [4] (30 μg/ml lauric acid, 28 poor-host strains, four hours at 35°, three-fold with no lauric acid), the “average level of amplification (output pfu/ml divided by input pfu/ml)” value worked out at 45 fold. In addition, the “effect on amplification on poor or restrictive S. aureus hosts” value in test [4] (FIG. 1 legend) is given as “improves amplification”. In addition, the “S. aureus strains tested showing stimulation of bacteriophage amplification” value in test [1] (in response to lauric acid, strains tested to date) was “more than 80%”. The “effect on phage amplification in MRSA strains” value in test [2] (added lauric acid and cefoxitin) is recorded as “relieves suppression of phage amplification by cefoxitin”.

Consider `CCCCC/C=C\C/C=C\CCCCCCCC(=O)O` [linoleic acid], for which the “effect on bacteriophage amplification” value in test [1] is given as “positively stimulate bacteriophage amplification”.

Take `CCCCCCCCCCCCCC(=O)O` [myristic acid]: the “effect on bacteriophage amplification” value in test [1] is listed as “positively stimulate bacteriophage amplification”.

As to `CCCCCCCC/C=C\CCCCCCCC(=O)O` [oleic acid], the “effect on bacteriophage amplification” value in test [1] is “positively stimulate bacteriophage amplification”.

In the case of `CC(=O)C(=O)[O-].[Na+]` [sodium pyruvate], the “effect on mean amplification of the bacteriophage” value in test [5] (about 10 mmol/L to 60 mmol/L sodium pyruvate) is given as “increased significantly”. In addition, the “mean amplification of the bacteriophage” value in test [5] (about 30 mmol/L sodium pyruvate, about 92 without) is 150. In test [6] (10 mmol/L to 50 mmol/L sodium pyruvate, wide variety of S. aureus strains), the “effect on phage sensitivity” value is recorded as “significantly increase phage sensitivity”. In test [6] (15 mmol/L to 31 mmol/L sodium pyruvate), the phage sensitivity result is reported as “above 90%”. Moreover, in test [6] (27 mmol/L sodium pyruvate), the “increase of sensitivity over sensitivities without sodium pyruvate” value is “about 15%”.
